“Also recorded” adds a separate entry of the source.
What was measured:
S-180 sarcoma [1] = assay: In vivo tumor growth inhibition, S-180 sarcoma in mice; conditions: 75 mg/kg i.v, injected twice (Day 1 and Day 4)
[2] = Body weight and deaths of S-180 bearing mice; format: in vivo; conditions: 75 mg/kg i.v, injected twice (Day 1 and Day 4)
[3] = test system: human hepatocellular carcinoma BEL-7402; assay: Growth inhibition of BEL-7402 cells (MTT or SRB assay); format: cell-based; conditions: read-out: Growth inhibition effect to BEL-7402 cell strain; for inhibition at 100 µM: 10^−4 M; for inhibition at 10 µM: 10^−5 M; for inhibition at 1 µM: 10^−6 M; for inhibition at 0.1 µM: 10^−7 M; for inhibition at 0.01 µM: 10^−8 M
Description: (§1) The procedure of MTT assay was as follows: appropriate amount of cells in log phase were seeded in 96-well plates (6000 cells/well, 15000 cells/well, 90ul/well) according to the growing rate. After cultured for 24 h, cells were exposed to serial dilutions of drugs in triplicate (10 ul/well). In addition, wells without cell, and wells without cell but with serial dilutions of drugs in case of using a colored-drug were set for zeroing. Then, the cells were cultured in 5% CO2 humidified incubator at 37° C. for 48 h. After treatment of drugs for 48 h, 20ul MTT (Sigma) which was diluted by normal saline to the concentration of 5 mg/ml was added to each well, 50ul/well 10%SDS-5% isobutanol-0.01% mol/LHCl was added after 4 h. After cultured overnight, absorbance was measured at 570 nm using a multiwell spectrophotometer. The inhibition effect of the compounds in test (percentage of growth inhibition) was calculated for each well: % inhibition=(OD570control cells−OD570treated cells)/OD570control cells×100%.
(§2) The procedure of SRB assay was as follows: appropriate amount of cells in log phase were seeded in 96-well plates according to the growing rate (90 ul/well). After cultured for 24 h, cells were exposed to serial dilutions of drugs in triplicate (10 ul/well). In addition, control wells of normal saline in corresponding concentrations and zeroing wells without cell were set. The cells were incubated in 5% CO2 humidified incubator at 37° C. After 72 h, the medium was removed and cells were fixed with cold 10% trichloric acid (TCA) at 4° C. for 1 h. The plates were washed with distilled water 5 times, and stained in room temperature with 4 mg/ml SRB (Sigma, diluted with 1% glacial acetic acid, 100 ul/well) for 15 minutes after air drying. SRB was then washed with 1% acetic acid 5 times. Plates were dried, followed by adding 150 ul/well Tris solution. Absorbance was measured at […] using a multiwell spectrophotometer. The inhibition effect of the compounds in test (percentage of growth inhibition) was calculated for each well: % inhibition=(A540control cells−A540treated cells)/A540control cells×100%.
(§3) The methods used were MTT assay or SRB assay.
(§4) The cell lines used were mice leukemia cell P388, human leukemia cell MOLT-4, human lung adenocarcinoma cell A-549, human gastric adenocarcinoma SGC-7901, human hepatocellular carcinoma BEL-7402 and human embryonal fibroblast WI-38 (commerially available from ATCC).
(§5) The exposure time to compounds was 48 h-72 h.

mice leukemia cell P388 = assay: Growth inhibition of P388 cells, MTT assay; format: cell-based; conditions: Mus musculus, read-out: Growth inhibition effect to P388 cell strain; for inhibition at 100 µM: 10^−4 M; for inhibition at 10 µM: 10^−5 M; for inhibition at 1 µM: 10^−6 M; for inhibition at 0.1 µM: 10^−7 M; for inhibition at 0.01 µM: 10^−8 M
Description: (§6) The cell growth inhibition of mice leukemia cell P388 was evaluated by MTT (microculture tetrozolium) assay, while the cell growth inhibition of human lung adenocarcinoma cell A-549 was evaluated by SRB (Sulforhodamine B) protein staining assay.
as §1, §4, §5

[4] = test system: human gastric adenocarcinoma SGC-7901; assay: Growth inhibition of SGC-7901 cells (MTT or SRB assay); format: cell-based; conditions: read-out: Growth inhibition effect to SGC-7901 cell strain; for inhibition at 100 µM: 10^−4 M; for inhibition at 10 µM: 10^−5 M; for inhibition at 1 µM: 10^−6 M; for inhibition at 0.1 µM: 10^−7 M; for inhibition at 0.01 µM: 10^−8 M
Description: as §1, §2, §3, §4, §5

[5] = test system: human lung adenocarcinoma cell A-549; assay: Growth inhibition of A-549 cells, SRB protein staining assay; format: cell-based; conditions: read-out: Growth inhibition effect to A-549 cell strain; for inhibition at 100 µM: A549, 10^−4 M; for inhibition at 10 µM: A549, 10^−5 M; for inhibition at 1 µM: A549, 10^−6 M; for inhibition at 0.1 µM: A549, 10^−7 M; for inhibition at 0.01 µM: A549, 10^−8 M
Description: as §6, §2, §4, §5

[6] = test system: human leukemia cell MOLT-4; assay: Growth inhibition of MOLT-4 cells (MTT or SRB assay); format: cell-based; conditions: read-out: Growth inhibition effect to MOLT-4 cell strain; for inhibition at 100 µM: 10^−4 M; for inhibition at 10 µM: 10^−5 M; for inhibition at 1 µM: 10^−6 M; for inhibition at 0.1 µM: 10^−7 M; for inhibition at 0.01 µM: 10^−8 M
Description: as §1, §2, §3, §4, §5

S-180 sarcoma [7] = assay: In vivo tumor growth inhibition, S-180 sarcoma in mice; conditions: i.p. injection
Description: S-180 sarcoma developed for 7-11 days and in good growth trend was homogenated into cell suspension. The cell suspension was inoculated subcutaneously into right armpit of female KM mice (18˜22 g) (about 1.0−2.5×10^6 cells/mouse). After 24 h, the mice were grouped in random with compounds administrated by i.p. injection. From the next day on, the mice were given serial dosages. After treatment, animals were killed, and solid tumors were removed and weighed after the body weight were weighed. The inhibition rate was calculated as follows, and T-test was carried out: [(Average tumor weight of NS group−Average tumor weight of test group)/Average tumor weight of NS group]×100%.

Compound | melting point [°C] | inhibition at 100 µM [3] [%] | inhibition at 10 µM [3] [%] | inhibition at 1 µM [3] [%] | inhibition at 0.1 µM [3] [%] | inhibition at 0.01 µM [3] [%] | inhibition at 100 µM (mice leukemia cell P388) [%] | inhibition at 10 µM (mice leukemia cell P388) [%] | inhibition at 1 µM (mice leukemia cell P388) [%] | inhibition at 0.1 µM (mice leukemia cell P388) [%] | inhibition at 0.01 µM (mice leukemia cell P388) [%] | inhibition at 100 µM [4] [%] | inhibition at 10 µM [4] [%] | inhibition at 1 µM [4] [%] | inhibition at 0.1 µM [4] [%] | inhibition at 100 µM [5] [%] | inhibition at 10 µM [5] [%] | inhibition at 1 µM [5] [%] | inhibition at 0.1 µM [5] [%] | inhibition at 0.01 µM [5] [%] | also measured
O=c1[nH]cc(F)c(=O)[nH]1 [5-FU] |  |  |  |  |  |  |  |  |  |  |  |  |  |  |  |  |  |  |  |  | Tumor growth inhibition % (S-180 sarcoma [1]): 96.9%; Weight of tumor (g) mean ± SD (S-180 sarcoma [1]): 0.05 ± 0.04 g; Weight of mice (g) Day 7 [2]: 20.7 g
CCCCn1c(=O)c2ccc3sc4ccccc4c4ccc(c1=O)c2c34 [compound 1, N-butyl benzo[k, l]thioxanthene-3,4-dicarboximide] | 185 to 186 | 70.1 | 76.9 | 67 | 3.7 | 6.6 | 51.7 | 10.2 | 6.4 | 2.2 | 4.3 | 87.5 | 56.2 | 46 | 21.4 | 34.4 | 0 | 0 | 0 | 0 | inhibition at 0.01 µM [4]: 9.8%; inhibition at 100 µM [6]: 100%; inhibition at 10 µM [6]: 98.5%; inhibition at 1 µM [6]: 97.7%; inhibition at 0.1 µM [6]: 77.4%; inhibition at 0.01 µM [6]: 1.1%
CN(C)CCn1c(=O)c2ccc3sc4ccccc4c4ccc(c1=O)c2c34 [compound 2, N-(N′,N′-dimethylaminoethyl)benzo[k, l]thioxanthene-3,4-dicarboximide] | 212 to 213 | 95.1 | 90.7 | 72.9 | 24.9 | 14.2 | 99.9 | 78.9 | 22.2 | 7.7 | 10.1 | 96.2 | 88 | 37.8 | 28.5 | 91.3 | 90.2 | 75.1 | 50.2 | 16.9 | inhibition at 0.01 µM [4]: 0.8%; inhibition at 100 µM [6]: 100%; inhibition at 10 µM [6]: 100%; inhibition at 1 µM [6]: 97.7%; inhibition at 0.1 µM [6]: 42.3%; inhibition at 0.01 µM [6]: 0%
CN(C)CCCn1c(=O)c2ccc3sc4ccccc4c4ccc(c1=O)c2c34 [compound 4, N-(N′, N′-dimethylaminopropyl)benzo[k, l]thioxanthene-3,4-dicarboximide] | 202 to 203 | 94.6 | 95 | 50.7 | 24.3 | 17.9 | 100 | 100 | 23.1 | 11 | 16.2 | 94.5 | 91.8 | 39.1 | 0.2 | 80.3 | 92.9 | 73.5 | 33.4 | 17.3 | inhibition at 0.01 µM [4]: 13.8%; inhibition at 100 µM [6]: 100%; inhibition at 10 µM [6]: 99.7%; inhibition at 1 µM [6]: 93.9%; inhibition at 0.1 µM [6]: 22.3%; inhibition at 0.01 µM [6]: 0%
CN(C)CCN1C(=O)c2cccc3c2c(cc2nc(-c4cccc([N+](=O)[O-])c4)sc23)C1=O [compound 7, N-(N′,N′-dimethylaminoethyl)-4H, 6H-9-m-nitrophenyl-benzo[de]thiazol[5,4-g]isoquinoline4,6-diketone] | 229 to 230 | 96.9 | 95.8 | 80.6 | 33.1 | 17 | 98.7 | 74.6 | 47.9 | 15.8 | 18 | 96.4 | 95.1 | 67 | 6.9 | 89.1 | 89 | 72.3 | 71.3 | 52 | activity against mice S180 sarcoma (in words) (S-180 sarcoma [7]; listed as C7): not potent; also recorded: active against S180 sarcoma, but weaker than C16; inhibition at 0.01 µM [4]: 3.4%; inhibition at 100 µM [6]: 95.1%; inhibition at 10 µM [6]: 99.2%; inhibition at 1 µM [6]: 100%; inhibition at 0.1 µM [6]: 13.3%; inhibition at 0.01 µM [6]: 0%
COc1ccc(-c2nc3cc4c5c(cccc5c3s2)C(=O)N(CCN(C)C)C4=O)cc1 [compound 9, N-(N′,N′-dimethylaminoethyl)-4H, 6H-9-p-methoxy phenyl-benzo[de]thiazol[5,4-g]isoquinoline-4,6-diketone] | 216 to 217 |  |  |  |  |  | 95.1 | 92.3 | 78.2 | 15.2 | 21 |  |  |  |  | 94.9 | 93.9 | 94.5 | 69.4 | 44.5 | activity against mice S180 sarcoma (in words) (S-180 sarcoma [7]; listed as C9): not potent; also recorded: active against S180 sarcoma, but weaker than C16
CN(C)CCN1C(=O)c2cccc3c2c(cc2nnsc23)C1=O [compound 11, 5-(N′,N′-dimethylaminoethyl)-4H, 6H-benzo[de]-1,2,3,-thiadiazol[5,4-g]isoquinoline-4,6-diketone] | 178 to 179 | 95.7 | 90.9 | 74 | 20.1 | 24.4 | 98.7 | 92.7 | 42.2 | 13.8 | 10.7 | 96.5 | 97.1 | 38.9 | 16.7 | 95.7 | 93.7 | 94.5 | 76.6 | 20.2 | inhibition at 0.01 µM [4]: 1.1%; inhibition at 100 µM [6]: 100%; inhibition at 10 µM [6]: 100%; inhibition at 1 µM [6]: 100%; inhibition at 0.1 µM [6]: 82.8%; inhibition at 0.01 µM [6]: 0%
